Values of other authors as cited in patent EP4555997A1, “WATER-SOLUBLE COMPOSITION COMPRISING UROLITHIN” (Science4Beauty Sp. z o.o., priority 2023, dated 2025).

Conditions: HPLC-determined, water at 30° C

O=c1oc2cc(O)ccc2c2ccc(O)cc12 [UroA, 3,8-dihydroxy-6H-benzo[c]chromen-6-one]
solubility in water: less than 0.01 g/L
